Laboratory results reported in article PMC4184574, “Enantioselectivity in the cytochrome P450-dependent conversion of tegafur to 5-fluorouracil in human liver microsomes” (Pharmacology Research & Perspectives, 2013).

Key:
CYP2C19 = target: T1, CYP2C19 (Homo sapiens, UniProt P33261); experiment: 5-FU formation from FT enantiomers by cDNA-expressed CYP2C19 (kinetics, velocity, RAF contribution); format: in vitro ADME; settings: for CYP contribution: CYP2C19, RAF method, 30 μmol/L
T1 construct: purchased BD Gentest; host or cells: insect cells (baculovirus)
Procedure: (§1) (pooled preparations from 20 donors; Kansas City, KS). […] Insect microsomes expressing only NADPH-P450 oxidoreductase and cytochrome b5 were also used as control. These enzymes were stored at −80°C until use.
(§2) 5-FU formed from FT was subjected to extensive metabolism by dihydropyrimidine dehydrogenase (DPD) contaminating human hepatic preparations. Therefore, a potent DPD inhibitor, CDHP, was always added to avoid the unexpected loss of 5-FU (Ikeda et al. [2000]; Yamamiya et al. [2010]). Incubation mixture for hepatic microsomal metabolism contained FT, microsomes (1 mg protein/mL), 0.1 mmol/L CDHP, and an NADPH-generating system consisting of 1.3 mmol/L β-NADP^+, 3.3 mmol/L glucose-6-phosphate, 3.3 mmol/L magnesium chloride, and 0.4 units glucose-6-phosphate dehydrogenase in 100 mmol/L Tris (pH 7.4). Metabolic reaction by S9 and cytosol (each 2 mg protein/mL) was carried out in 100 mmol/L phosphate (pH 7.4) because TPase requires phosphate ions for catalyzing the reaction. In some cases, insect microsomes expressing recombinant CYP isoforms (20 pmol/mL) were added to the incubation mixtures in either 50, 100 mmol/L phosphate (pH 7.4) or 100 mmol/L Tris (pH 7.4), depending on supplier's recommendation. […] The reaction for the assay of FT metabolism was initiated by adding the substrate, following preincubation for 5 min at 37°C. […] The incubation times of microsomes, cytosol, and S9 were 15, 15, and 30 min, respectively. After centrifugation, the supernatant was collected and stored at −80°C until the determination of 5-FU. Because a small portion of FT is nonenzymatically converted to 5-FU, the content of 5-FU spontaneously formed was subtracted from total yield obtained after incubation to correct the activity. The spontaneous degradation of FT to 5-FU was evaluated using enzymes inactivated by heating them at 100°C for 5 min.
(§3) Concentration of 5-FU was determined using a LC/MS/MS system. […] The mobile phase consisted of 10 mmol/L ammonium acetate/acetonitrile 10:90 (v/v). The MS/MS analysis was performed in negative ionization mode under multiple reaction monitoring (MRM) mode, using mass transitions, m/z 128.6/41.8 for 5-FU and m/z 130.6/42.8 for ^15N2-5-FU, an internal standard (IS). […] For quantification of 5-FU, the calibration curves were linear over the range 2–1000 ng/mL.
(§4) In determining kinetic parameters, FT concentration ranged from 0.03 to 10 mmol/L. All reactions were performed in a linear range of 5-FU formation with respect to protein or CYP concentrations and incubation time. Eadie–Hofstee plot analysis was used to characterize enzyme kinetics in which kinetic parameters were estimated by fitting the data to the following equations (1) or (2): [drawing 1] (1) [drawing 2] (2) where V is 5-FU formation rate, S is FT concentration in the incubation mixture, Km1 and Km2 are affinity constants for high- and low-affinity components, respectively, and Vmax1 and Vmax2 are maximum velocities for high- and low-affinity components, respectively.
(§5) The contribution of CYPn to the metabolism of R- and S-FT at their concentration of 30 μmol/L was subsequently calculated using equation (4). [drawing 4] (4) VCYPn = 5-FU formation rate in cDNA-expressed CYPn.

CYP2E1 = target: T2, CYP2E1 (Homo sapiens, UniProt P05181); experiment: 5-FU formation from FT enantiomers by cDNA-expressed CYP2E1 (kinetics, velocity, RAF contribution); format: in vitro ADME; settings: for CYP contribution: CYP2E1, RAF method, 30 μmol/L; for CLint / Km / Vmax: cDNA-expressed CYP2E1
T2 construct: purchased BD Gentest; host or cells: insect cells (baculovirus)
Procedure: as §1, §2, §3, §4, §5

T1 sequence (P33261 whole entry): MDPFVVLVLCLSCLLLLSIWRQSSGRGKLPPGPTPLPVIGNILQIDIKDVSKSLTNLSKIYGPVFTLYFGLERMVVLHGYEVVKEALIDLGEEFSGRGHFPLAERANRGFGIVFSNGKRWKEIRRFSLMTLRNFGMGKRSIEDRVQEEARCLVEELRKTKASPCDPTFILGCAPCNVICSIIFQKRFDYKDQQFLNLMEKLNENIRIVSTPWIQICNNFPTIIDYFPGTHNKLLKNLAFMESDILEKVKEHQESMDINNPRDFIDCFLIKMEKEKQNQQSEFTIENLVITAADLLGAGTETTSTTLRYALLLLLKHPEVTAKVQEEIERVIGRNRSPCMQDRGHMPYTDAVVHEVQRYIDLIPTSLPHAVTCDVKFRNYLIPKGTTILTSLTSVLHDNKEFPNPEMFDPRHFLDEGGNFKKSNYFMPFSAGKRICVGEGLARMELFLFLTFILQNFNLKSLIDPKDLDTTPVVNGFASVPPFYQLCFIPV
T2 sequence (P05181 whole entry): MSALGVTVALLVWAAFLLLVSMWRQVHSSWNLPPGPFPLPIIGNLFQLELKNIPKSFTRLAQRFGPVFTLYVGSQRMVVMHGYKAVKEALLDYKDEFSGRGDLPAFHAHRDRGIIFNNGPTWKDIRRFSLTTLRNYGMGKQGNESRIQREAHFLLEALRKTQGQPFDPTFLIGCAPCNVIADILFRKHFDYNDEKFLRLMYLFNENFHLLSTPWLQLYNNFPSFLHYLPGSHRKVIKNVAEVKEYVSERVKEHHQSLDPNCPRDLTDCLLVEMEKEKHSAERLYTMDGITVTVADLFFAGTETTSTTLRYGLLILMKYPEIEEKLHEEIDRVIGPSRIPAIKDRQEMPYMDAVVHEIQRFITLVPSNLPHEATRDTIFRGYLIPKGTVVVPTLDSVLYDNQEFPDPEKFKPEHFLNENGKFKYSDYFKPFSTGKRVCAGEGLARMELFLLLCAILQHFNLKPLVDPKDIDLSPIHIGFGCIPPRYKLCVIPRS

SMILES	CYP contribution (CYP2C19)	CLint (CYP2C19; cDNA-expressed CYP2C19)	Km (CYP2C19; cDNA-expressed CYP2C19)	Vmax (CYP2C19; cDNA-expressed CYP2C19)	CYP contribution (CYP2E1)	CLint (CYP2E1)	Km (CYP2E1)	Vmax (CYP2E1)
O=c1[nH]c(=O)n([C@@H]2CCCO2)cc1F [S-FT]	3.9%	0.90 nL min^−1 pmol^−1 CYP	6.2 ± 0.3 mM	5.5 ± 0.2 pmol min^−1 pmol^−1 CYP	7.0%	1.3 nL min^−1 pmol^−1 CYP	3.7 ± 0.2 mM	4.7 ± 0.2 pmol min^−1 pmol^−1 CYP
O=c1[nH]c(=O)n([C@H]2CCCO2)cc1F [R-FT]	0.59%	–	> 10 mM	–	4.3%	2.3 nL min^−1 pmol^−1 CYP	3.6 ± 0.3 mM	8.4 ± 0.6 pmol min^−1 pmol^−1 CYP
